Target: T1, human CIC-1 channels (Homo sapiens, UniProt P35523)
T1 construct: host or cells: CHO cells constitutively expressing human ClC-1
Test: Automated patch-clamp on human CIC-1 expressed in CHO cells
Assay type: cell-based
Settings: difference in half activation voltage, compound added intracellularly vs control cell patches; positive shift = CIC-1 inhibition
Protocol: The investigatory goal of these experiments was to evaluate how compounds affect the open probability and current amplitude of human CIC-1 channels expressed in CHO cells. Experiments were performed using an automated patch clamp system that allowed high throughput testing of whole cell patches together with both intracellular and extracellular addition of compound.
Automated whole cell patch clamp experiments were performed with the Qpatch 16 system (Sophion Bioscience, Ballerup, Denmark) at room temperature. Data acquisition and analysis were performed in the Qassay software (ver. 5.6, Odense).
To evoke CIC-1 currents in whole cell patches, the membrane potential was initially stepped from a holding potential of -30 mV to +60 mV for 100 ms and then to various test voltages (sweeps) ranging from +120 mV to -140 mV in steps of 20 mV for 300 ms. To obtain tail currents, the membrane potential was stepped to -100 mV after each test voltage for 300 ms and then relaxed to -30 mV for 2 sec between sweeps (Figure 3). I/V relationships for whole cell instant and steady state current amplitudes were obtained by plotting average current densities at the beginning and at the end of the 300 ms step against the membrane potential (Figure 4).
In order to determine the relative overall open probability (P0), the instantaneous tail currents were normalized to the maximal tail current obtained following the most positive voltage step and plotted against the test voltage. Plots of normalized tail currents from each whole cell patch were then fitted to a Boltzmann function allowing determination of half activation voltages (V1/2, Figure 5).
For automated patch clamp experiments extracellular solutions contained: 2 mM CaCl2, 1 mM MgCl2, 10 mM HEPES, 4 mM KCI, 145 mM NaCl, 10 mM Glucose, pH adjusted to 7.4 with NaOH (2 M). Osmolality adjusted to -320 using sucrose.
Intracellular solutions contained: 80 mM CsF, 60 mM CsCI, 5/1 mM KOH/EGTA, 10 mM HEPES, 10 mM NaCl, pH adjusted to 7.2 with NaOH (2 M). Osmolality adjusted to -320 mOsm using sucrose.
Cells used in patch clamp experiments were Chinese hamster ovary cells (CHO) constitutively expressing human CIC-1 channels. The amino acid sequence encoded by the cDNA used to create this cell line was identical to the translated sequence for GenBank accession number NM_000083.2. Cells were produced by Charles River (Catalogue CT6175, Cleveland OH, USA) in a cryopreserved format. Experiments were performed on the cells directly after thawing (3 × 10^6 cells used in each experiment).
To evaluate the compound effect on CIC-1, when applied directly to the intracellular side of the cell membrane, the half activation voltage, V1/2, was determined from whole cell patches with compound added to the intracellular solution and then compared to V1/2 determined from control cell patches with only vehicle added to the intracellular solution. Additionally, the effect of extracellular added compound was evaluated by determine V1/2 and steady state current amplitudes before and after exchanging the extracellular solution to contain compound.
The difference in half activation voltage of CIC-1 channels, ΔV1/2, was determined as the difference between the cell patches treated intracellularly with compound and control cells patches and is reported in Table 4 below. A positive shift in ΔV1/2 is reflecting CIC-1 channel inhibition by the tested compound. P-values of <0.05 is considered significant. […]

T1 sequence (P35523 whole entry): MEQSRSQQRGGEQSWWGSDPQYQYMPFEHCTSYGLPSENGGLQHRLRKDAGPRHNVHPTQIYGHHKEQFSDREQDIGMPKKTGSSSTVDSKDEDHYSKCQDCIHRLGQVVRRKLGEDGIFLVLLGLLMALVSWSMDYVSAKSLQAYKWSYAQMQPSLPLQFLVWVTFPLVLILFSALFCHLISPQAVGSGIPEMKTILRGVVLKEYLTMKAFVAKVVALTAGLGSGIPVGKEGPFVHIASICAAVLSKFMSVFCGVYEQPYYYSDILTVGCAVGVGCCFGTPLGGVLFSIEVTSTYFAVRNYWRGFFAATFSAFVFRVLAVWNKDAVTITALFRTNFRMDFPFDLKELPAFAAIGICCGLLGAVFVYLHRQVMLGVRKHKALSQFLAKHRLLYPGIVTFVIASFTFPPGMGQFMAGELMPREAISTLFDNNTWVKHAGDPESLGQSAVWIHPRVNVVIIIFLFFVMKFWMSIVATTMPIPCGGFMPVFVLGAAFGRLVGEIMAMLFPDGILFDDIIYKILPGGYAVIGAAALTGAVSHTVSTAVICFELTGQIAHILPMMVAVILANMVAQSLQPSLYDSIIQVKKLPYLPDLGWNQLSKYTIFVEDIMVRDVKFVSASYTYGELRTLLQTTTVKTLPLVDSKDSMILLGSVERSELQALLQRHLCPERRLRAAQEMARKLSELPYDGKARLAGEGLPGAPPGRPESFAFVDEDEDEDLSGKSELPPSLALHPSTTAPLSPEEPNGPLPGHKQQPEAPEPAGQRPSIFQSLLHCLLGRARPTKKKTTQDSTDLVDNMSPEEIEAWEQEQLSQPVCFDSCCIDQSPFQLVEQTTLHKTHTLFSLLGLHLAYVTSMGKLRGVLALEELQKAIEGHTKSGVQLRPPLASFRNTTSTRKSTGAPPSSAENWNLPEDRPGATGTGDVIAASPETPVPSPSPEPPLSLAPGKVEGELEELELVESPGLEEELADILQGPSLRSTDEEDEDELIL

Row | SMILES | ΔV1/2
1 | [2H][C@@](CC)(Oc1ccc(Br)cc1)C(=O)O [Compound A-60, (2S)-2-(4-bromophenoxy)(2-^2H)butanoic acid] | 20.0 mV
2 | O=C(O)[C@H](CCF)Oc1ccc(Br)cc1 [Compound A-87, (2S)-2-(4-bromophenoxy)-4-fluorobutanoic acid] | 16.4 mV
3 | CC(C)[C@H](Oc1ccc(Br)cc1F)C(=O)O [Compound A-27, (2S)-2-(4-bromo-2-fluorophenoxy)-3-methylbutanoic acid] | 20.2 mV

— patent EP3723745B1, “PHENOXY ACIDS FOR THE TREATMENT OF NEUROMUSCULAR DISORDERS” (NMD Pharma A/S, priority 2017, dated 2019)
